According to US11814680B2, “Biomarkers for detecting senescent cells” (Universität für Bodenkultur Wien, priority 2017, dated 2023):
Marks after values point to notes of the source that are not given here.

These substances were tested on p16-3MR mice (assay: ROC analysis of discriminatory power of circulating microRNAs). Conditions: serum, RT-qPCR, DOX vs PBS; symbol after the number = significance.
Assay type: in vivo, mouse
Protocol: (§1) Statistical analysis was performed using Medcalc (version 18.2.1). Normal distribution was assessed using D'Agostino-Pearson test, where normality was accepted at p>0.05. One-way ANOVA together together with Student-Newman-Keuls test for all pairwise comparisons (post-hoc tests) was used to identify significant changes between groups (p<0.05). To assess the discriminatory power of individual microRNAs, receiver operating characteristic (ROC) analysis was applied. ROC curves were plotted using sensitivity (y-axis) and 1-specificity (x-axis) and the area under the ROC curve (AUC) was calculated. MicroRNAs with AUC-values of >0.7 were considered as good discriminators/biomarkers. MicroRNAs with AUC-values >0.8 were considered very good discriminators/biomarkers.
In order to assess the diagnostic power of circulating microRNAs for the exposure with senescence inducing substances (DOX) as well as the efficacy of senolytic treatment, ROC analysis was performed and the area-under-the-curve (AUC) was calculated. […] Table 23 below summarizes AUC values as well as 95% confidence intervals for 24 selected circulating microRNAs.

**Q.** For “miR-345-5p: circulating microRNA biomarker, SEQ ID No. 83 (GCUGACUCCUAGUCCAGGGCUC; expressed or natural sequence; listed as Homo sapiens)”, which “ROC Analysis AUC Senescence” value is on record?
**A.** 0.781*

**Q.** For “miR-375-5p: circulating microRNA biomarker, SEQ ID No. 88 (UUUGUUCGUUCGGCUCGCGUGA; expressed or natural sequence; listed as Homo sapiens)”, which “ROC Analysis AUC Senescence” value is on record?
**A.** 0.570°

**Q.** How did the “ROC Analysis AUC Senescence” value turn out when “miR-409-3p: circulating microRNA biomarker, SEQ ID No. 89 (GAAUGUUGCUCGGUGAACCCCU; expressed or natural sequence; listed as Homo sapiens)” was run?
**A.** 0.609°

**Q.** For “miR-483-5p: circulating microRNA biomarker, SEQ ID No. 91 (AAGACGGGAGGAAAGAAGGGAG; expressed or natural sequence; listed as Homo sapiens)”, which “ROC Analysis AUC Senescence” value is on record?
**A.** 0.563°

Same assay, conditions: serum, RT-qPCR, DOX/GCV vs DOX; symbol after the number = significance

**Q.** “miR-345-5p: circulating microRNA biomarker, SEQ ID No. 83 (GCUGACUCCUAGUCCAGGGCUC; expressed or natural sequence; listed as Homo sapiens)” was tested. Which “ROC Analysis AUC Senolytic Treatment” value did it give?
**A.** 0.875*

**Q.** How did the “ROC Analysis AUC Senolytic Treatment” value turn out when “miR-375-5p: circulating microRNA biomarker, SEQ ID No. 88 (UUUGUUCGUUCGGCUCGCGUGA; expressed or natural sequence; listed as Homo sapiens)” was run?
**A.** 0.859*

**Q.** Which “ROC Analysis AUC Senolytic Treatment” value does the source give for “miR-409-3p: circulating microRNA biomarker, SEQ ID No. 89 (GAAUGUUGCUCGGUGAACCCCU; expressed or natural sequence; listed as Homo sapiens)” here?
**A.** 0.859*

**Q.** With “miR-483-5p: circulating microRNA biomarker, SEQ ID No. 91 (AAGACGGGAGGAAAGAAGGGAG; expressed or natural sequence; listed as Homo sapiens)” as the substance, how does the “ROC Analysis AUC Senolytic Treatment” value read?
**A.** 0.766*

Each substance was assayed on p16-3MR mice (assay: RT-qPCR verification of serum circulating microRNA changes, one-way ANOVA). Conditions: independent of gender, in words.
Assay type: in vivo, mouse
Protocol: p16-3MR (Demaria et al, 2014, Developmental Cell 31:722-733) mice were bred in house and maintained in the AALAC-accredited Buck Institute for Research on Aging (Novato, Calif.) animal facility. 10 to 12-week-old p16-3MR […] mice were used for experiments. Mice were divided in 4 groups and each group consisted of 8 animals, 5 female, and 3 male, respectively. In group A, control mice were injected with PBS. In group B, mice were treated with Ganciclovir (GCV) (Sigma-Aldrich) dissolved in PBS for 5 consecutive days. In group C, mice were treated with one dose of Doxorubicine hydrochloride (Sigma-Aldrich) dissolved in PBS. In group D, mice were first treated with Doxorubicine and then treated 10 days later with GCV. Mice were intraperitoneally injected with one dose of 10 mg/kg of Doxorubicine hydrochloride, and GCV was administered daily by intraperitoneal injections for 5 consecutive days at concentration of 25 mg/kg in PBS. 4 days after the last GCV dose, animals were euthanized with CO2 and blood was withdrawn immediately. Blood was then incubated for 30 min at room temperature and centrifuged at 3400×g for 10 min. Serum was carefully collected in a sterile tube without disturbing the cell pellet and stored at −80° C. for further experiments.
Total RNA extraction was performed from 200 μl of serum using the Qiagen miRNeasy extraction kit (Qiagen, Germany). RNA yield was quality checked for homogenous extraction efficiency and hemolysis on the basis qPCR amplification of spiked-in as well as hemolysis-responsive RNAs (Blondal et al). In total 2 μl total RNA were used for reverse transcription using the Exiqon Universal RT kit II (Exiqon, Denmark). The obtained cDNA samples were pre-diluted 1:40 and subsequently mixed with SYBR Green® Mix (Exiqon, Denmark) to achieve a 1:100 dilution. The mix was distributed to primer-coated 384-well plates containing dried primer pairs for 96 selected microRNA or quality control assays. QPCR amplification was performed on a Roche LightCycler 480 II, using the manufacturer's recommendation for annealing, extension and denaturation.
Raw Cq-values were computed using the 2nd derivative method. Melting curves were checked for peaks to ensure specificity of the amplification reactions. Cq-values were subsequently normalized using Spike-In controls as references, to reduce technical noise in the data.
as §1

**Q.** How did the “regulation in serum after exposure to DOX compared to PBS” value turn out when “miR-345-5p: circulating microRNA biomarker, SEQ ID No. 83 (GCUGACUCCUAGUCCAGGGCUC; expressed or natural sequence; listed as Homo sapiens)” was run?
**A.** significantly (up- or down-regulated)

Same assay, conditions: p<0.05, in words

**Q.** How did the “change of serum level following senolytic treatment (DOX/GCV compared to DOX)” value (“change … (DOX/GCV compared to DOX)” below) turn out when “miR-375-5p: circulating microRNA biomarker, SEQ ID No. 88 (UUUGUUCGUUCGGCUCGCGUGA; expressed or natural sequence; listed as Homo sapiens)” was run?
**A.** significantly changed

**Q.** Which “change … (DOX/GCV compared to DOX)” value does the source give for “miR-409-3p: circulating microRNA biomarker, SEQ ID No. 89 (GAAUGUUGCUCGGUGAACCCCU; expressed or natural sequence; listed as Homo sapiens)” here?
**A.** significantly changed

**Q.** Which “change … (DOX/GCV compared to DOX)” value does the source give for “miR-483-5p: circulating microRNA biomarker, SEQ ID No. 91 (AAGACGGGAGGAAAGAAGGGAG; expressed or natural sequence; listed as Homo sapiens)” here?
**A.** significantly changed

Same assay, conditions: serum, DOX/GCV compared to DOX

**Q.** How did the “One-way ANOVA Senolytic Treatment (DOX/GCV)” value turn out when “miR-345-5p: circulating microRNA biomarker, SEQ ID No. 83 (GCUGACUCCUAGUCCAGGGCUC; expressed or natural sequence; listed as Homo sapiens)” was run?
**A.** * (significant p < 0.05)

**Q.** Which “One-way ANOVA Senolytic Treatment (DOX/GCV)” value does the source give for “miR-375-5p: circulating microRNA biomarker, SEQ ID No. 88 (UUUGUUCGUUCGGCUCGCGUGA; expressed or natural sequence; listed as Homo sapiens)” here?
**A.** * (significant p < 0.05)

**Q.** How did the “One-way ANOVA Senolytic Treatment (DOX/GCV)” value turn out when “miR-409-3p: circulating microRNA biomarker, SEQ ID No. 89 (GAAUGUUGCUCGGUGAACCCCU; expressed or natural sequence; listed as Homo sapiens)” was run?
**A.** * (significant p < 0.05)

**Q.** Which “One-way ANOVA Senolytic Treatment (DOX/GCV)” value does the source give for “miR-483-5p: circulating microRNA biomarker, SEQ ID No. 91 (AAGACGGGAGGAAAGAAGGGAG; expressed or natural sequence; listed as Homo sapiens)” here?
**A.** * (significant p < 0.05)

Same assay, conditions: serum, n=8 per group, male and female mice

**Q.** For “miR-345-5p: circulating microRNA biomarker, SEQ ID No. 83 (GCUGACUCCUAGUCCAGGGCUC; expressed or natural sequence; listed as Homo sapiens)”, which “One-way ANOVA Senescence (DOX vs PBS)” value is on record?
**A.** * (significant p < 0.05)

**Q.** Which “One-way ANOVA Senescence (DOX vs PBS)” value does the source give for “miR-375-5p: circulating microRNA biomarker, SEQ ID No. 88 (UUUGUUCGUUCGGCUCGCGUGA; expressed or natural sequence; listed as Homo sapiens)” here?
**A.** ○

**Q.** “miR-409-3p: circulating microRNA biomarker, SEQ ID No. 89 (GAAUGUUGCUCGGUGAACCCCU; expressed or natural sequence; listed as Homo sapiens)” was tested. Which “One-way ANOVA Senescence (DOX vs PBS)” value did it give?
**A.** ○

**Q.** “miR-483-5p: circulating microRNA biomarker, SEQ ID No. 91 (AAGACGGGAGGAAAGAAGGGAG; expressed or natural sequence; listed as Homo sapiens)” was tested. Which “One-way ANOVA Senescence (DOX vs PBS)” value did it give?
**A.** ○

The substances below were run on p16-3MR mice (assay: Pearson correlation of serum miRNA levels to miR-34a-5p and miR-27a-3p). Conditions: correlation of serum level to miR44a-5p (so in the source).
Parameters: species or system mouse
Excerpt: In order to extend these finding to potential additional miRNAs, we performed Pearson correlation to miR-34a-5p and miR-27a-3p, resulting in additional potential biomarkers (Table 18).

**Q.** Which “Pearson Correlcation coefficient miR44a-5p” value does the source give for “mmu-miR-10a-3p: circulating microRNA, SEQ ID No. 16 (CAAAUUCGUAUCUAGGGGAAUA; expressed or natural sequence; listed as Homo sapiens)” here?
**A.** 0.52

**Q.** How did the “Pearson Correlcation coefficient miR44a-5p” value turn out when “mmu-miR-29a-3p: circulating microRNA, SEQ ID No. 22 (UAGCACCAUCUGAAAUCGGUUA; expressed or natural sequence; listed as Homo sapiens)” was run?
**A.** 0.74

**Q.** How did the “Pearson Correlcation coefficient miR44a-5p” value turn out when “mmu-miR-30b-5p: circulating microRNA, SEQ ID No. 9 (UGUAAACAUCCUACACUCAGCU; expressed or natural sequence; listed as Homo sapiens)” was run?
**A.** 0.70

**Q.** With “mmu-miR-191-5p: circulating microRNA, SEQ ID No. 18 (CAACGGAAUCCCAAAAGCAGCUG; expressed or natural sequence; listed as Homo sapiens)” as the substance, how does the “Pearson Correlcation coefficient miR44a-5p” value read?
**A.** 0.32

**Q.** With “mmu-miR-223-3p: circulating microRNA, SEQ ID No. 19 (UGUCAGUUUGUCAAAUACCCCA; expressed or natural sequence; listed as Homo sapiens)” as the substance, how does the “Pearson Correlcation coefficient miR44a-5p” value read?
**A.** 0.55

Same assay, conditions: correlation of serum level to miR-27a-3p

**Q.** For “mmu-miR-10a-3p: circulating microRNA, SEQ ID No. 16 (CAAAUUCGUAUCUAGGGGAAUA; expressed or natural sequence; listed as Homo sapiens)”, which “Pearson Correlcation coefficient miR-27a-3p” value is on record?
**A.** 0.90

**Q.** “mmu-miR-29a-3p: circulating microRNA, SEQ ID No. 22 (UAGCACCAUCUGAAAUCGGUUA; expressed or natural sequence; listed as Homo sapiens)” was tested. Which “Pearson Correlcation coefficient miR-27a-3p” value did it give?
**A.** 0.74

**Q.** With “mmu-miR-30b-5p: circulating microRNA, SEQ ID No. 9 (UGUAAACAUCCUACACUCAGCU; expressed or natural sequence; listed as Homo sapiens)” as the substance, how does the “Pearson Correlcation coefficient miR-27a-3p” value read?
**A.** 0.65

**Q.** With “mmu-miR-191-5p: circulating microRNA, SEQ ID No. 18 (CAACGGAAUCCCAAAAGCAGCUG; expressed or natural sequence; listed as Homo sapiens)” as the substance, how does the “Pearson Correlcation coefficient miR-27a-3p” value read?
**A.** 0.81

**Q.** How did the “Pearson Correlcation coefficient miR-27a-3p” value turn out when “mmu-miR-223-3p: circulating microRNA, SEQ ID No. 19 (UGUCAGUUUGUCAAAUACCCCA; expressed or natural sequence; listed as Homo sapiens)” was run?
**A.** 0.83
